Where “and” joins values, the source holds several entries; their conditions need not be identical. Equal values may be shown once. Entries after “also recorded” stand apart in the source; their conditions may differ. Read-outs that look alike come from different tables or passages of the source.
Key:
[1] = tested on: IL-15 signaling; experiment: Whole blood assay IL-15 pSTAT5 CD3+; assay type: cell-based
[2] = tested on: CYP2B6; experiment: CYP induction (mRNA) in human hepatocytes, CYP2B6; assay type: in vitro ADME
[3] = In vitro metabolism of [14C]Compound 1 in liver cytosol and hepatocytes; assay type: in vitro ADME, rat, dog, monkey, and human
Description: In vitro biotransformation of Compound 1 primarily occurred at imidazolpyrrolopyrazinyl ethyl pyrrolidine moiety.

[4] = Metabolic stability in liver microsomes, human; assay type: in vitro ADME; conditions: read-out: intrinsic clearance in liver microsomes (converted)
[5] = Safety pharmacology in dogs (mean arterial pressure, heart rate); conditions: dog, in vivo; read-out: Cmax at which effects on mean arterial pressure and heart rate begin
Description: Compound 1 was tested in a battery of safety pharmacology assays.

[6] = 6-month (26 weeks) GLP chronic oral toxicity study in rats; assay type: in vivo, rat; conditions: for AUC(0-t) / Cmax: po, rat 20 mg/kg/day; for AUC(0-t): read-out: AUC0-24 at NOAEL; for Cmax: read-out: Cmax at NOAEL
Description: (§1) The GLP-compliant studies each included 4 weeks of oral dosing followed by a 4-week recovery period in both rats and dogs followed by GLP-compliant chronic toxicity studies in rats (6 months of oral dosing) and dogs (9 months of oral dosing).
The 6-month chronic rat study was conducted at dose levels of 0, 5, 20, and 50 mg/kg/day by daily oral administration (gavage).

[7] = Pharmacokinetics in rat; assay type: in vivo; conditions: for clearance: read-out: CLp (converted); for Vd: read-out: Vss
[8] = [14C]Compound 1 absorption and excretion in bile duct-cannulated rats; assay type: in vivo, Sprague-Dawley male rats
[9] = target: T1, BCRP (Homo sapiens, UniProt Q9UNQ0); experiment: BCRP inhibition; assay type: in vitro ADME
T1 construct: expressed in transfected cells; host or cells: MDCKII-BCRP
T1 sequence (Q9UNQ0 whole entry): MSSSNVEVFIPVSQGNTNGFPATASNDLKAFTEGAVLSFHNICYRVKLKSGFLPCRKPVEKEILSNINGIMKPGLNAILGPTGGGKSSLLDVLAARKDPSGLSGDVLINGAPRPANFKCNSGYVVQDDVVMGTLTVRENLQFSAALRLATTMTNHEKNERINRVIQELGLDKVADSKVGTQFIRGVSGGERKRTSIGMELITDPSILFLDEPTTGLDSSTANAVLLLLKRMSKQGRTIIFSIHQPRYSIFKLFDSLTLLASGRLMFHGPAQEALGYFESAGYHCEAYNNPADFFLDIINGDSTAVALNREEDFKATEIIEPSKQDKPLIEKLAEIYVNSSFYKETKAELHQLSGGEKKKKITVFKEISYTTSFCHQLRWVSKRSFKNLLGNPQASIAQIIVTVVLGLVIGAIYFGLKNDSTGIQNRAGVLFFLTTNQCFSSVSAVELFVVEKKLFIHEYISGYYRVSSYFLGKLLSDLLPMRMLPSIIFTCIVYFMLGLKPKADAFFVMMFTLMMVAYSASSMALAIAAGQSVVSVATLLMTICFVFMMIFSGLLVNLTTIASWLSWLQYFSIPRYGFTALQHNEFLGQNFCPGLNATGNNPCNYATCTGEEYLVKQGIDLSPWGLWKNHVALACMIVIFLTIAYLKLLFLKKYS

[10] = tested on: EPO (Erythroid CFU); experiment: Erythroid bone marrow colony forming assay (EPO); assay type: cell-based; conditions: read-out: Colony Formation EPO (Erythroid CFU)
[11] = Pivotal 4-week GLP oral toxicity study in dogs; assay type: in vivo, beagle dogs
Description: as §1

[12] = target: CYP2C8 (Homo sapiens, UniProt P10632); experiment: CYP inhibition in human liver microsomes, CYP2C8
CYP2C8, sequence (P10632 whole entry): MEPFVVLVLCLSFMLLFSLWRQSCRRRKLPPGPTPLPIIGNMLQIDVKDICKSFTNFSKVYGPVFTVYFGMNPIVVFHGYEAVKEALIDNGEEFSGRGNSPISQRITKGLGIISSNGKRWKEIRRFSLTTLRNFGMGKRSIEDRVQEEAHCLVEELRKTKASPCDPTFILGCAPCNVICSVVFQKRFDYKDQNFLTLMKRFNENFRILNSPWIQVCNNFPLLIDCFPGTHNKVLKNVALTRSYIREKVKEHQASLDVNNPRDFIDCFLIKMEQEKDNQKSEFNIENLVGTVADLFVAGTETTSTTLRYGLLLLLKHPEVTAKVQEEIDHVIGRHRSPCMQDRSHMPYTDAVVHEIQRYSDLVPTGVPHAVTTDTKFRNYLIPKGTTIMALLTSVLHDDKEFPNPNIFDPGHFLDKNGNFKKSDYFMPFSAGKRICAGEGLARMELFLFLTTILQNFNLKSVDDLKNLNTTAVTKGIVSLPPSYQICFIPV

[13] = target: CYP3A4 (midazolam/testosterone) (Homo sapiens, UniProt P08684); experiment: CYP inhibition in human liver microsomes, CYP3A4
CYP3A4 (midazolam/testosterone), sequence (P08684 whole entry): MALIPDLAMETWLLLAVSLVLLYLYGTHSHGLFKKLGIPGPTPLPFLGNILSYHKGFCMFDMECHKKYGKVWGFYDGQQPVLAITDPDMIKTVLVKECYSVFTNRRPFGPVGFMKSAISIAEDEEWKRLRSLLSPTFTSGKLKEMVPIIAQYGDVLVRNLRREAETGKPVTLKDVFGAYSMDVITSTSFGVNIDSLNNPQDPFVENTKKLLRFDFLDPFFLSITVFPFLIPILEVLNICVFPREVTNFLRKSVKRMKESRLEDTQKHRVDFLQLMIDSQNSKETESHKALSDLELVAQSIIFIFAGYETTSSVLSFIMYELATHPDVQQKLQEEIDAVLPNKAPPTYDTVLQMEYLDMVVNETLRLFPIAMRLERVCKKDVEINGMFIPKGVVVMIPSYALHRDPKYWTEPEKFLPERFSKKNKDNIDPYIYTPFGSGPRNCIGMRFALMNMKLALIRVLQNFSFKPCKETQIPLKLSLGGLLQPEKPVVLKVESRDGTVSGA

[14] = target: OAT1 (Homo sapiens, UniProt Q4U2R8); experiment: Transporter inhibition, OAT1; conditions: up to 30 μM
OAT1, sequence (Q4U2R8 whole entry): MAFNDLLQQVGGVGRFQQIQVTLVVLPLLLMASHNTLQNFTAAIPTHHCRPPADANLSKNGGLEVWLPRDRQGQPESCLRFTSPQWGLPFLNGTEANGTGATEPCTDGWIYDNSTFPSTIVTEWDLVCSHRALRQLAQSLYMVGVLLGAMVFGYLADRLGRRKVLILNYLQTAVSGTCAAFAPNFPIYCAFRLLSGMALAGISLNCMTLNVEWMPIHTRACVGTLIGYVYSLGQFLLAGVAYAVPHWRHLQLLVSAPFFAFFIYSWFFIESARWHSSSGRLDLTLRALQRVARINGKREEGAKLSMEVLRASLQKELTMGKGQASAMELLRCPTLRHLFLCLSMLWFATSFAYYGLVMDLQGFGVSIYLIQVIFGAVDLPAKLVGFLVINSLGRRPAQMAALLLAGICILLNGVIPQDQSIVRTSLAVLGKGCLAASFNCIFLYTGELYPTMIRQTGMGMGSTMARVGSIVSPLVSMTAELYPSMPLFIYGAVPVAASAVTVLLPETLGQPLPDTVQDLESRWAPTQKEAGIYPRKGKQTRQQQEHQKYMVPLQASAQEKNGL

[15] = target: OCT1 (Homo sapiens, UniProt O15245); experiment: Transporter inhibition, OCT1; conditions: up to 30 μM
OCT1, sequence (O15245 whole entry): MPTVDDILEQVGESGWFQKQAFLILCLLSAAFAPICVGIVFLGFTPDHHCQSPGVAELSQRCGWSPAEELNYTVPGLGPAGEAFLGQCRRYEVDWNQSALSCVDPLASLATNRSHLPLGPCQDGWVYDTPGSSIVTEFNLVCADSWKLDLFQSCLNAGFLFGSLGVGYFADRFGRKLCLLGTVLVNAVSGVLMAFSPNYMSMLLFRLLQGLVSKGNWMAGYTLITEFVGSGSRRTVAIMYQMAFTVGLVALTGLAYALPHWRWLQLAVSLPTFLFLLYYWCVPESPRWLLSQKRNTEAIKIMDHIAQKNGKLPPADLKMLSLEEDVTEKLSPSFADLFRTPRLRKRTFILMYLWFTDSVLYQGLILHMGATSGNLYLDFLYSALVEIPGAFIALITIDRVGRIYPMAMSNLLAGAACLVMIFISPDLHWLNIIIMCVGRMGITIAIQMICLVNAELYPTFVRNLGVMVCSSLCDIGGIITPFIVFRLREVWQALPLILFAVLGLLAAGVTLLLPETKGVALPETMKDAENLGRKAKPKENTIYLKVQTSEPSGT

[16] = Metabolic stability in hepatocytes, dog; assay type: in vitro ADME; conditions: read-out: intrinsic clearance in hepatocytes (converted)
[17] = Pivotal 4-week GLP oral toxicity study in rats; conditions: rat, 4 weeks; leading number = dose mg/kg/day
Description: The 4-week rat study was conducted at dose levels of 0, 10, 50, 100, and 200 mg/kg/day by daily oral administration (gavage). […] The cause of death was not determined for animals that died.

[18] = tested on: GMCSF-induced pSTAT5 (Jak2 signaling); experiment: Ex vivo stimulation assay GM-CSF pSTAT5, orally dosed human; conditions: 24 mg but not 12 mg oral, 1 hour post dose
[19] = target: Rock2 (Homo sapiens, UniProt O75116); experiment: Kinase panel, Rock2; assay type: biochemical
Rock2, sequence (O75116 whole entry, species assumed): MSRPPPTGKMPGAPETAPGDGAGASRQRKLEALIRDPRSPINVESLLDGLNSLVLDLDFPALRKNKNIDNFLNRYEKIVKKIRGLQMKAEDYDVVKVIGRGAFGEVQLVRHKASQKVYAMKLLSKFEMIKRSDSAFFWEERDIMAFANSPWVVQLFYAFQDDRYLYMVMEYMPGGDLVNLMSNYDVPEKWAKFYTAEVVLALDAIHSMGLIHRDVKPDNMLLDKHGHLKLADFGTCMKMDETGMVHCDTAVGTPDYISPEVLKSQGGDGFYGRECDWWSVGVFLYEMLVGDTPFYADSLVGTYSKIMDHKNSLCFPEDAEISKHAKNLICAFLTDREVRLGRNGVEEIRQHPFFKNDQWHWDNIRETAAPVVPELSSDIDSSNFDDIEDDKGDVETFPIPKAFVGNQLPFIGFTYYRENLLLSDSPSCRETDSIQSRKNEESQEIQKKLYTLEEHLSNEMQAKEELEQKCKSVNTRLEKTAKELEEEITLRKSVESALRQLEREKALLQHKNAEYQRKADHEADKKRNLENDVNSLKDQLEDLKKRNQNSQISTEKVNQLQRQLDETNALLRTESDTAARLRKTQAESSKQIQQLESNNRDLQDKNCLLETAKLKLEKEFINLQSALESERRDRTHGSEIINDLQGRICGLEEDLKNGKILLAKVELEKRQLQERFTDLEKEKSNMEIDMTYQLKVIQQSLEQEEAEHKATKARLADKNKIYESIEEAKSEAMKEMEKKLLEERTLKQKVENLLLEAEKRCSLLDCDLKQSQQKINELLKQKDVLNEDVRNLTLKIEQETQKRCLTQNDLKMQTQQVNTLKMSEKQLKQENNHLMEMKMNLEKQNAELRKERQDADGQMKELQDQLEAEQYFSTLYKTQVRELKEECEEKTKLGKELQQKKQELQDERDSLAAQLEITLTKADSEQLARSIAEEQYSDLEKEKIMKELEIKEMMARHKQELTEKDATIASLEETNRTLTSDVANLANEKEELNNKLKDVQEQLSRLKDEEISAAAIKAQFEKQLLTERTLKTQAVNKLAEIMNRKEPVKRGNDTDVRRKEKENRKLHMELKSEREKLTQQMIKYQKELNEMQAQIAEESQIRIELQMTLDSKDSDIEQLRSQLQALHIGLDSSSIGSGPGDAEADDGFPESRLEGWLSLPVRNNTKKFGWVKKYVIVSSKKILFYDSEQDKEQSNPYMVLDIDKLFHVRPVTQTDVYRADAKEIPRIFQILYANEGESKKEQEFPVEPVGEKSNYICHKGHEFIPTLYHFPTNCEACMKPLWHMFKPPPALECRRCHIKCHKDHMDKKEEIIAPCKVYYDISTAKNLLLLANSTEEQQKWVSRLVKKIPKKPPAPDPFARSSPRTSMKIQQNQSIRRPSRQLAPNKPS

[20] = target: MATE1 (Homo sapiens, UniProt Q96FL8); experiment: Transporter inhibition, MATE1
MATE1, sequence (Q96FL8 whole entry): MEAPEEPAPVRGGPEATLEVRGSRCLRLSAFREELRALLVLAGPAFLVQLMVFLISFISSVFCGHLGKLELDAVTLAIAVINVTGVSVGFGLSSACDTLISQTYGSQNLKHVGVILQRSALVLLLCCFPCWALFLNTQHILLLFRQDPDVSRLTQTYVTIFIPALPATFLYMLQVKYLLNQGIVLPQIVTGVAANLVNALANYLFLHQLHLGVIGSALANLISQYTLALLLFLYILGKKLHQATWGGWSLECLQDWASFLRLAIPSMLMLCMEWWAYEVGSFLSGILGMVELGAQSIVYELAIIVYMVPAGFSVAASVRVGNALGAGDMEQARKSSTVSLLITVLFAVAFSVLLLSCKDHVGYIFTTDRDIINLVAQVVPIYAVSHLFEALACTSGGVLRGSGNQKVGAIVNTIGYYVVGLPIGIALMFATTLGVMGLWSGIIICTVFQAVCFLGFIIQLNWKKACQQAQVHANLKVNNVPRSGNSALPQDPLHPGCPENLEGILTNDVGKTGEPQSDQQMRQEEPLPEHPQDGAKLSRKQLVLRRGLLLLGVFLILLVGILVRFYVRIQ

[21] = Metabolic stability in liver microsomes, rat; assay type: in vitro ADME; conditions: read-out: intrinsic clearance in liver microsomes (scaled) (converted)
[22] = female, Sprague-Dawley, rat, plasma, po, 50 mg/kg/day, rat F, oral 50 mg/kg/day, Day 1, mean (SD)
[23] = male, Sprague-Dawley, rat, plasma, po, 10 mg/kg/day, rat M, oral 10 mg/kg/day, Day 1, mean (SD)
[24] = male, Sprague-Dawley, rat, plasma, po, 100 mg/kg/day, rat M, oral 100 mg/kg/day, Day 1, mean (SD)
[25] = plasma, rat, IV 0.3 mg/kg single dose
[26] = plasma, rat, IV 0.3 mg/kg single dose, mean (SD)
[27] = plasma, rat, IV 3 mg/kg single dose
[28] = plasma, rat, IV 3 mg/kg single dose, mean (SD)
[29] = rat, plasma, po, 3 mg/kg, oral 3 mg/kg single dose, mean (SD)

Structure (SMILES): CC[C@@H]1CN(C(=O)NCC(F)(F)F)C[C@@H]1c1cnc2cnc3[nH]ccc3n12 [Compound 1, (3S,4R)-3-ethyl-4-(3H-imidazo[1,2-a]pyrrolo[2,3-e]pyrazin-8-yl)-N-(2,2,2-trifluoroethyl)pyrrolidine-1-carboxamide]
- IC50 ([1]; read-out: IL-15 (pSTAT5, CD3+)): 16 nM
- IC50 ([1]; whole blood, read-out: IC50 IL-15 pSTAT5 CD3+): 16 nM
- CYP2B6 mRNA expression, % of the response of phenobarbital ([2]; 10 μM): 25%
- mRNA expression of CYP2B6 ([2]; 1 and 3 μM): did not increase
- metabolism in liver cytosol incubations ([3]; liver cytosol): No metabolism
- turnover in hepatocytes ([3]; rat, dog, monkey, human hepatocytes): < 10%
- CLint scaled at 0.5 μM [4]: 31.2 mL/min/kg
- Cmax [5]: 420 ng/mL
- AUC(0-t) ([6]; female, in vivo, females): 6840 ng·h/mL
- Cmax ([6]; female, in vivo, females): 2240 ng/mL
- NOAEL at 6 months ([6]; in vivo, rat, 6 months (26 weeks) oral gavage): 20 mg/kg/day
- AUC(0-t) ([6]; male, in vivo, males): 3830 ng·h/mL
- Cmax ([6]; male, in vivo, males): 1110 ng/mL
- Adverse Findings ([6]; rat, 26 weeks, 50 mg/kg/day): 50: Kidneys-tubular
- AUC ([7]; female, Sprague-Dawley, plasma, rat F, oral 10 mg/kg/day, Day 1, mean (SD)): 1870 ng·h/mL
- AUC at 29 days ([7]; female, Sprague-Dawley, plasma, rat F, oral 10 mg/kg/day, Day 29, mean (SD)): 2280 ng·h/mL
- AUC ([7]; female, Sprague-Dawley, plasma, rat F, oral 50 mg/kg/day, Day 1, mean (SD)): 22400 ng·h/mL
- AUC at 29 days ([7]; female, Sprague-Dawley, plasma, rat F, oral 50 mg/kg/day, Day 29, mean (SD)): 33200 ng·h/mL
- AUC ([7]; female, Sprague-Dawley, plasma, rat F, oral 100 mg/kg/day, Day 1, mean (SD)): 54100 ng·h/mL
- AUC at 29 days ([7]; female, Sprague-Dawley, plasma, rat F, oral 100 mg/kg/day, Day 29, mean (SD)): 63800 ng·h/mL
- AUC ([7]; female, Sprague-Dawley, plasma, rat F, oral 200 mg/kg/day, Day 1, mean (SD)): 108000 ng·h/mL
- Cmax ([7]; female, Sprague-Dawley, rat, plasma, po, 10 mg/kg/day, rat F, oral 10 mg/kg/day, Day 1, mean (SD)): 468 ng/mL
- Cmax at 29 days ([7]; female, Sprague-Dawley, rat, plasma, po, 10 mg/kg/day, rat F, oral 10 mg/kg/day, Day 29, mean (SD)): 650 ng/mL
- Cmax [7, 22]: 5160 ng/mL
- Tmax [7, 22]: 2.2 h
- Cmax ([7]; female, Sprague-Dawley, rat, plasma, po, 100 mg/kg/day, rat F, oral 100 mg/kg/day, Day 1, mean (SD)): 13500 ng/mL
- Cmax ([7]; female, Sprague-Dawley, rat, plasma, po, 200 mg/kg/day, rat F, oral 200 mg/kg/day, Day 1, mean (SD)): 18200 ng/mL
- AUC ([7]; male, Sprague-Dawley, plasma, rat M, oral 10 mg/kg/day, Day 1, mean (SD)): 1390 ng·h/mL
- AUC at 29 days ([7]; male, Sprague-Dawley, plasma, rat M, oral 10 mg/kg/day, Day 29, mean (SD)): 1490 ng·h/mL
- AUC ([7]; male, Sprague-Dawley, plasma, rat M, oral 50 mg/kg/day, Day 1, mean (SD)): 15900 ng·h/mL
- AUC at 29 days ([7]; male, Sprague-Dawley, plasma, rat M, oral 50 mg/kg/day, Day 29, mean (SD)): 16800 ng·h/mL
- AUC ([7]; male, Sprague-Dawley, plasma, rat M, oral 100 mg/kg/day, Day 1, mean (SD)): 24900 ng·h/mL
- AUC at 29 days ([7]; male, Sprague-Dawley, plasma, rat M, oral 100 mg/kg/day, Day 29, mean (SD)): 40800 ng·h/mL
- AUC ([7]; male, Sprague-Dawley, plasma, rat M, oral 200 mg/kg/day, Day 1, mean (SD)): 50400 ng·h/mL
- Cmax [7, 23]: 224 ng/mL
- Tmax [7, 23]: 2.2 h
- Cmax ([7]; male, Sprague-Dawley, rat, plasma, po, 50 mg/kg/day, rat M, oral 50 mg/kg/day, Day 1, mean (SD)): 3030 ng/mL
- Cmax [7, 24]: 3910 ng/mL
- Tmax [7, 24]: 3.2 h
- Tmax at 29 days ([7]; male, Sprague-Dawley, rat, plasma, po, 100 mg/kg/day, rat M, oral 100 mg/kg/day, Day 29, mean (SD)): 3.2 h
- Cmax ([7]; male, Sprague-Dawley, rat, plasma, po, 200 mg/kg/day, rat M, oral 200 mg/kg/day, Day 1, mean (SD)): 7250 ng/mL
- half-life [7, 25]: 1 h
- AUC(0-inf) [7, 26]: 80 ng·h/mL
- clearance [7, 26]: 63.3 mL/min/kg
- Vd [7, 25]: 2.7 L/kg
- half-life [7, 27]: 3 h
- AUC(0-inf) [7, 28]: 1550 ng·h/mL
- clearance [7, 28]: 33.3 mL/min/kg
- Vd [7, 27]: 2.2 L/kg
- clearance ([7]; plasma, rat, IV): 33.3 to 63.3 mL/min/kg
- half-life ([7]; plasma, rat, oral 3 mg/kg single dose): 5.2 h
- AUC(0-inf) ([7]; plasma, rat, oral 3 mg/kg single dose, mean (SD)): 472 ng·h/mL
- Vc ([7]; rat, IV 0.3 mg/kg single dose): 1.8 L/kg
- Vβ ([7]; rat, IV 0.3 mg/kg single dose): 5.7 L/kg
- Vc ([7]; rat, IV 3 mg/kg single dose): 0.46 L/kg
- Vβ ([7]; rat, IV 3 mg/kg single dose): 9.4 L/kg
- F ([7]; rat, oral 3 mg/kg single dose, mean (SD), 3 mg/kg): 30.5% and 30.5 (11.8) %
- Cmax [7, 29]: 95 ng/mL
- Tmax [7, 29]: 2.2 h
- mean total recovery of dosed radioactivity ([8]; intravenous): 96.0%
- radioactivity excreted into bile ([8]; intravenous): 49.7 % of dose
- radioactivity excreted into urine ([8]; intravenous): 23.7 % of dose
- mean total recovery of dosed radioactivity ([8]; oral): 96.8%
- parent drug excreted unchanged in urine ([8]; oral): 9%
- radioactivity excreted into bile ([8]; oral): 52.6 % of dose
- radioactivity excreted into urine ([8]; oral): 11.1 % of dose
- dose absorbed (radioactivity in bile and urine) ([8]; single oral dose 3 mg/kg): at least 63.7%
- IC50 [9]: 126000 nM
- IC50 [10]: 400 nM
- NOAEL at 4 weeks ([11]; both sexes, beagle, in vivo, dog, 4 weeks GLP, oral capsule): 1.5 mg/kg/day
- AUC(0-t) ([11]; both, beagle, plasma, oral, dog 1.5 mg/kg/day, males and females combined, read-out: AUC0-24 at NOAEL): 1200 ng·h/mL
- decreases in red cell mass (up to) ([11]; dog, 3 mg/kg/day): −23%
- decreases in circulating lymphocytes compared with baseline ([11]; dog, 5 mg/kg/day): −20% to −37%
- decreases in red cell mass (up to) ([11]; dog, 5 mg/kg/day): −32%
- Adverse Findings ([11]; dog, 4 weeks GLP, leading number = dose mg/kg/day): ≧3: Popliteal lymph
- time-dependent inhibition of CYP2C8 ([12]; human liver microsomes): No obvious time-dependent inhibition
- inhibition of CYP2C8 ([12]; up to 30 μM): did not inhibit; also recorded: not an inhibitor
- time-dependent inhibition of CYP3A4 ([13]; human liver microsomes): No obvious time-dependent inhibition
- inhibition of CYP3A4 (midazolam/testosterone) ([13]; up to 30 μM): did not inhibit; also recorded: not an inhibitor
- inhibition of OAT1 uptake [14]: No significant inhibition
- inhibition of OCT1 uptake [15]: No significant inhibition
- CLint scaled at 1 μM [16]: 6.92 mL/min/kg
- Adverse Findings [17]: ≧100: Mortality
- inhibition of GMCSF-induced pSTAT5 [18]: partial inhibition
- IC50 [19]: 430 nM
- IC50 [20]: 11000 nM
- CLint scaled at 0.5 μM [21]: 84.7 mL/min/kg
